Results published in US8759301B2, “Gene fusion targeted therapy” (The Regents of The University of Michigan, priority 2010, dated 2014).
Where a chain is given by its changes, count along the chain named. Read-outs that look alike come from different tables or passages of the source. Where a SMILES comes first, the peptide text is derived from it.

Experiments:
[1] = test system: TMPRSS2-ERG fusion transcript in LNCaP cells; conditions: DHT 10 nM, 12 hours
Description: It was investigated whether stimulation with androgen (e.g. DHT) could create gene fusions by coupling androgen stimulation with an agent that causes DNA double strand breaks. LNCaP cells were hormone depleted, followed by stimulation with DHT (10 nM, 12 hours), irradiation (1 or 3 Gy) and clonal expansion of single cells in 96 well plates using flow sorting. The presence of the TMPRSS2-ERG fusion transcript was determined using quantitative reverse-transcription PCR (QRT-PCR) with both SYBR green and TaqMan assays spanning the chimeric region.

[2] = test system: TMPRSS2 and ERG loci in LNCaP cells
[3] = test system: TMPRSS2 and ERG loci in DU145 cells
DU145 = assay: Cell invasion with TAT-peptides, DU145; assay type: cell-based; conditions: FIG. 39
Description: (§1) Invaded cells were stained with crystal violet and photographed.

VCaP [4] = assay: Cell proliferation with TAT-peptide, VCaP; assay type: cell-based; conditions: FIG. 40
Description: Standard cell proliferation and apoptosis assays (Chinnaiyan et al., Cell, 1995. 81(4): p. 505-12; Chinnaiyan et al., Proc Natl Acad Sci USA, 2000. 97(4): p. 1754-9; Varambally et al., Nature, 2002. 419(6907): p. 624-9) are used to assess the inhibitory role of peptides in prostate cell proliferation driven by TMPRSS2:ETS fusions, using both the over-expression series and stable-knockdown series.

AR binding to ETS domain = target: T1, AR binding to ETS domain (Homo sapiens, UniProt P11308)
T1 sequence (P11308 311-391 limits assumed): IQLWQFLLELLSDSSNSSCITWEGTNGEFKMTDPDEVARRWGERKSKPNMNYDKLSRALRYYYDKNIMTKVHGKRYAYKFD
Description: Beads were eluted by SDS loading buffer and blotted with anti-GST mAb specifically against GST-AR (FIG. 30).
The cDNAs and fragments are cloned into pFN19A vector per manufacturer's protocol. In vitro translated proteins are generated by a wheat germ expression system (Promega) and immobilized onto HaloLink magnetic beads. After washing, the conjugated beads are incubated with GST-AR fusion proteins in the presence or absence of peptides. The bound proteins are analyzed by SDS-PAGE and blotted with anti-GST mAb (Sigma).

VCaP [5] = test system: VCaP
Description: (§2) Briefly, equal numbers of the indicated cells were seeded onto the basement membrane matrix (EC matrix, Chemicon) present in the insert of a 24-well culture plate, with fetal bovine serum added to the lower chamber as a chemoattractant. After 48 h, non-invading cells and the EC matrix were removed by a cotton swab. Invaded cells were stained with crystal violet and photographed. The inserts were treated with 10% acetic acid and absorbance was measured at 560 nm.

ERG = target: T2, ERG (Homo sapiens, UniProt P11308)
T2 sequence (P11308 1-479): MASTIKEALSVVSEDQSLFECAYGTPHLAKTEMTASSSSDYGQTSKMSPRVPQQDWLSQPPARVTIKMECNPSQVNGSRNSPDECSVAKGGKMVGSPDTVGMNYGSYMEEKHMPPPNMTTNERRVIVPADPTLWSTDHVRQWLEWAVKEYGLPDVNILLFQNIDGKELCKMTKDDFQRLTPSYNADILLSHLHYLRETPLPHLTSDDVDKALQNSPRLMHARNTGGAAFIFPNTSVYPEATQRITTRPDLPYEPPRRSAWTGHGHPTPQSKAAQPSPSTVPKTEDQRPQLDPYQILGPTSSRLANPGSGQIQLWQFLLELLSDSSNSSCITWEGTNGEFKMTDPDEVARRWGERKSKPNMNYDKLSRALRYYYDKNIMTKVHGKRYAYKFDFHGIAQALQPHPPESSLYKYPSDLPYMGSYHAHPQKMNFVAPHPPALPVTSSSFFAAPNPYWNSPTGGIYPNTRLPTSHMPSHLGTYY

VCaP [6] = assay: Cell invasion with TAT-peptides, VCaP; conditions: FIG. 39
Description: as §2

[7] = test system: TMPRSS2-ERG and wild-type ERG transcripts; assay type: cell-based
Description: All PCR experiments were performed in triplicates.

VCaP [8] = assay: DNA damage in VCaP with TAT peptides; assay type: cell-based; conditions: FIG. 42
[9] = target: T3, ETS domain stretch RALRYYYDK (Arg367 to Lys375 in ERG), R367→K (Homo sapiens, UniProt P11308, R367K); assay type: binding
T3 construct: used a series of overlapping 19 amino acids segments of ETS domain; made in house
T3 sequence (P11308 311-391 R367K): T1 sequence (P11308 311-391 limits assumed) with R57K
Description: Interactive phage clones were sequenced and analyzed using bioinformatics approaches to identify consensus peptide sequence. […] The domains within ERG that mediate the binding of isolated phage clones were mapped using a panel of ERG deletion mutants expressed as HaloTag fusion protein. A total of 6 domains, namely N-term, ETS, CAE, PNT, CD, and CTD (Carrere et al., Oncogene, 1998. 16(25): p. 3261-8), were cloned and expressed in TNT SP6 wheat germ system. Without purification, the expression reactions were coated on HaloLink Array system and incubated with individual phage clones. The interaction signal was detected by Cy3-labled anti-M13 antibody, which is specifically directed against the phage capsid protein (FIG. 28). […] Further mapping studies used a series of overlapping 19 amino acids segments of ETS domain specifically localized the binding site to a 9 amino-acids conserved stretch […] (SEQ ID NO. 1) corresponding to the residues Arg^367 to Lys^375 in ERG (FIG. 29). The conserved region of the amino acids specifically involved in peptide binding was then located.

[10] = test system: RWPE-1 cells transduced with ERG adenovirus; assay: ERG-mediated invasion of RWPE-1 cells transduced with ERG adenovirus; assay type: cell-based; conditions: TAT-tagged peptides, 2 μM, 48 hours, RWPE-1 with ERG adenovirus
Description: as §1
To investigate the ability of ERG-binding peptides to block ERG-mediated invasion, the prostate cell lines RWPE-1 transduced with ERG or LACZ adenovirus were incubated with TAT-tagged peptides. […] The relative number of invaded cells was also quantified by colorimetric assays.

Row | Molecule | DU145 invasion (DU145) | VCaP proliferation (VCaP [4]) | ERG interactome (through ETS domain) (AR binding to ETS domain) | cell invasion driven by ERG (VCaP [5]) | ERG transcription activities (ERG) | VCaP invasion (VCaP [6]) | also measured
1 | C[C@]12CCC(=O)C[C@@H]1CC[C@@H]1[C@@H]2CC[C@]2(C)[C@@H](O)CC[C@@H]12 [DHT, Dihydrotestosterone] | – | – | – | – | – | – | clones harboring TMPRSS2-ERG fusion transcripts ([1]; then 1 Gy irradiation): 2.3%; clones harboring TMPRSS2-ERG fusion transcripts ([1]; then 3 Gy irradiation): 25%; proximity between the TMPRSS2 and ERG loci [2]: induced proximity; proximity between TMPRSS2 and ERG [3]: not observed
2 | TAT-LPPYLFT: TAT linked to LPPYLFT (SEQ ID NO: 45) (not fully specified; left off: small tags and cut ends) | not | inhibited | blocked | attenuated | blocked | inhibit | –
3 | UGG UCA GAG AGA AGC AAU A [wild-type ERG siRNA] | – | – | – | – | – | – | TMPRSS2-ERG expression [7]: did not affect
4 | TAT-LSFGSLP: TAT linked to LSFGSLP (SEQ ID NO: 2) (not fully specified; left off: small tags and cut ends) | not | inhibits | blocked | attenuated | blocked | inhibit | DNA damage in VCaP (VCaP [8]): inhibit
5 | CC(C)C[C@H](NC(=O)[C@H](CO)NC(=O)CNC(=O)[C@H](Cc1ccccc1)NC(=O)[C@H](CO)NC(=O)[C@@H](N)CC(C)C)C(=O)N1CCC[C@H]1C(=O)O [LSFGSLP] (H-LSFGSLP-OH) | – | – | – | – | – | – | phage peptide binding after single amino acid substitution R367→K [9]: completely abolished
6 | LPPYLFT | – | – | – | – | – | – | ERG-driven invasion [10]: blocked
